Experimental data: US9688653B2, “Ethoxyphenyl thienyl compounds and methods for the treatment of bacterial infections” (Duke University, priority 2013, dated 2017)

Legend:
[1] = system: Bladder carcinoma 5637 cells; test: Cytotoxicity counterscreen, CellTiter Glo, 72 hr; assay type: cell-based, human
Description: B. Counterscreen: Cytotoxicity Screening for Potential Inhibitors of Bacterial Capsule Biogenesis.
Purpose: This cell-based assay measures the cytotoxicity of compounds in bladder carcinoma 5637 cells using luminescent cell viability assay readout.
Cytotoxicity assay: The cytotoxicity assay was performed as described in Section 6: Appendix. Hit cytotoxicity and the 50% toxic concentration (CC50) was determined and compared to the IC50 to calculate the selectivity index.
Assay Description: Cytotoxicity: Dose response testing (dose range=300-0.58 μM) established the hit cytotoxicity data. Compounds were plated in 384-well microplates in a stacked dose response format using the same doses used in the efficacy dose response. Bladder carcinoma 5637 cells were added to the compounds, and 72 hr later cell viability was measured using CellTiter Glo (38). Hit cytotoxicity and the 50% toxic concentration (TC50) was determined and compared to the IC50 to calculate the therapeutic index. Test compounds are serially diluted in a plate to plate matrix or stacked plate matrix. All 320 compounds in a source plate are diluted together resulting in a 10 point dose response dilution series. It is visualized as a serial dilution series proceeding vertically through a stack of plates with the high dose plate on top and the low dose plate on the bottom.
Control Drug: Hyamine was used as a positive cytotoxic control. All wells contained 0.5% DMSO.
Preparation of Bladder carcinoma 5637 cells: Cells are harvested and resuspended to 80,000 cells per ml in Complete DMEM/F12®.
Endpoint Read: Following the three day incubation period, the assay plates were equilibrated to room temperature for 30 min and an equal volume (30 μL) of Cell Titer-Glo® reagent (Promega Inc.) is added to each well using a WellMate™ (Matrix, Hudson, N.H.) and plates are incubated for an additional 10 min at room temperature. At the end of the incubation, luminescence is measured using a Perkin Elmer Envision™ multi-label reader (PerkinElmer, Wellesley, Mass.) with an integration time of 0.1 s.
Cytotoxicity. Testing was performed essentially as previously described. Concentration-response testing was performed over a range 0.58-300 μM in a […] well plate format. Bladder carcinoma 5637 cells (ATCC HTB-9) were added to the compounds, and 72 hrs later cell viability was measured using CellTiter Glo (Promega). The 50% toxic concentration (TC50) was determined and compared to the IC50 to calculate the therapeutic index. Hyamine was used as a positive cytotoxic control. All wells contained 0.5% DMSO.

E. coli K1 strain UTI89 [2] = test: microbe, parasite or virus in culture; settings: for % Inhibition at 100 μM: HTS primary screen
Description: The ability of the […] to bind to bacterial capsule, infect, and lyse E. coli UT189 was used as the primary assay to identify the effects of screened compounds on bacterial capsule formation. The phenotypic end-point assay measured the fluorescence generated by cellular processing of Alamar Blue as a direct indicator of cell viability. A total of […] compounds were screened using the primary assay. […] Hits were further evaluated using […] secondary assays for alternative measurement of compound-induced reduction in bacterial capsule formation (secondary assays 1 and 2) and specificity (secondary assays 3 and 4). Confirmed actives with an SI>5 were further investigated and subjected to chemical optimization, followed by secondary assay evaluation. Secondary assays more closely characterized the ability of the compounds to reduce bacterial capsule formation and can be used to examine the mechanism of action of the compounds. The combination of primary assay (to measure capsule reduction), counter assay (for general eukaryotic cell toxicity) and secondary assay (to measure reduction in capsule formation and specificity) were combined to allow a determination of probe efficacy, selectivity, and specificity.
A. Primary Assay: Screening for Inhibitors of Bacterial Capsule Biogenesis.
Primary assay: An end-point assay to measure the amount of K1 phage-induced bacterial cell lysis was employed to determine the compound effect on capsule biogenesis. K1 bacteriophage specifically binds the bacterial capsule during the initial stages of infection. Bacteria without capsule cannot be infected and lysed by the bacteriophage. […] A total of 338,740 compounds were screened at 100 μM in the primary screen Inhibition of phage lysis was calculated relative to the mean of the bacterial (positive) control on each microtiter plate. […] For calculation of S/B/Z value, and CV, the following formulae (in which SD stands for standard deviation) were used: S/B=mean signal/mean background; Z=1-3SD of sample+3SD of control mean of sample−mean of control; % CV=(SD mean signal/mean signal)×100.
IC50 values were calculated using a 4 parameter Levenburg-Marquardt algorithm, with the maximum and minimum locked at 0 and 100 respectively.
Primary assay: The primary assay was conducted in the 1,536 well plate format. Bacterial cultures of E. coli K1 strain UTI89 (cystitis isolate) and isogenic capsule mutant strains (as controls for phage infection) were grown and prepared at the screening center immediately prior to use. Overnight starting cultures of UTI89 were grown at 37° C., and inoculated into 1 liter of LB (starting OD600˜0.03), which was sufficient for screening 40 plates (including ˜10% waste) and ˜40,000 compounds as single points.
Control wells contained UTI89 (wt K1) with 0.5% DMSO as a simulated positive control; UTI89 with 0.5% DMSO and tetracycline for a negative growth control; and media plus vehicle control. 50 mL of LB Broth was inoculated with stock 150 μL E. coli UT189 and grown overnight at 37° C. The next day, cultures were diluted 1:75 in 1 L of LB Broth containing 0.5% DMSO. 3 μL of this culture was added to each plate well, and plates were incubated, inverted, at 37° C. for 2 hr. The K1F bacteriophage stock was diluted 1:8 in LB Broth containing 0.5% DMSO, and 1.5 μL of diluted phage (or media only) was added to the pre-plated test compound wells and appropriate control wells. The plates were centrifuged briefly, and then were incubated, inverted, at 37° C. for an additional 2 hr. Afterward, Alamar Blue reagent (Invitrogen, #DAL1100) was diluted 1:2 with LB broth and 1 μL was added to each plate well.

E. coli K1 strain UTI89 [3] = test: Secondary assay 2: T7 phage-mediated lysis assay; assay type: cell-based, Escherichia coli; settings: read-out: T7 phage IC50
Description: D. Secondary Assay 2: Screening for Inhibitors of Bacterial Capsule Biogenesis—T7 Lysis Inhibition
Purpose: This secondary assay measures the compound mechanistic specificity for inhibition of bacterial capsule formation and excludes inhibitors of phage replication using a different bacteriophage (T7). In this assay, an increase in phage-induced lysis correlates to a decrease in capsule formation.
Purpose: This secondary assay measures the compound mechanistic specificity for inhibition of bacterial capsule formation using a different bacterial phage (T7). In this assay, an increase in phage-induced lysis correlates to a decrease in capsule formation.
Assay Description: T7 phage-mediated lysis assay: This assay determined if the mechanism of action of the compound is inhibition of phage infectivity or replication. The T7 phage has a nearly identical genome to K1F, without encoding an endosialidase. Its cycle of replication is similar to that of K1F as well. However, T7 entry into E. coli is inhibited by K capsules. This secondary assay was conducted in the 96 well plate format. […] Compounds were added in quadruplicate to plates in a concentration dependent manner in the range of 100-0.39 μM, followed by addition of 100 μL of bacterial culture. 1% DMSO (final well concentration) was included. The plates were tape sealed and shaken vigorously for 1.5 hr. An initial OD600 reading was measured to identify compounds that cause growth retardation or bacterial killing in the absence of phage. Next, T7 phage (5 μL) was added to all of the test wells. The plates were resealed and shaken vigorously at 37° C., and measurements of OD600 for phage-mediated lysis were taken after 3 hr. True inhibitors of capsule yielded bacteria that were susceptible to T7 phage and lysed within 2 hr of the addition of phage. […] The positive control drug C7 (100 μM final well concentration) was used in this screen.
T7 phage counter assay. This secondary assay was performed as previously described and was used to distinguish compounds with phage inhibitory effects from true polysaccharide capsule inhibitors. […] Thus, the presence of a capsule inhibits T7-mediated lysis. In this assay, an increase in phage-induced lysis correlates to a decrease in capsule formation. True inhibitors of capsule yielded bacteria that were susceptible to T7 phage and lysed within 2 hr of the addition of phage. […] The positive control molecule C7 (100 μM final well concentration) was used in this screen.

[4] = read-out: K1 phage IC50, second round of synthetic analogues, n = 3
[5] = second round of synthetic analogues, n = 2
[6] = read-out: K1 phage IC50, purchased analogue series, n = 3
[7] = read-out: K1 phage IC50, first round of synthetic analogues, n = 3
[8] = first round of synthetic analogues, n = 2
[9] = read-out: K1 phage IC50 (inhibition of K1 capsule formation)

O=C(O)c1sc(-c2ccc(OCCC(F)(F)F)cc2)cc1NC(=O)c1c(F)cc(F)cc1F [compound 56643010]
IC50 [1]: 63.6 µM
IC50 (E. coli K1 strain UTI89 [2]; [4]): 3.11 µM
IC50 (E. coli K1 strain UTI89 [3]; [5]): < 0.625 µM

Cc1c(C(=O)Nc2cc(-c3ccccc3)sc2C(=O)O)oc2ccccc12 [compound 17546661]
IC50 [1]: 48.7 µM
IC50 (E. coli K1 strain UTI89 [2]; [6]): > 100 µM
IC50 (E. coli K1 strain UTI89 [3]; purchased analogue series, n = 2): 33.3 µM

O=C(Nc1cc(-c2ccc(OC(F)(F)F)cc2)sc1C(=O)O)c1cc2ccccc2o1 [compound 53495058]
IC50 [1]: 40.6 µM
IC50 (E. coli K1 strain UTI89 [2]; [7]): > 100 µM
IC50 (E. coli K1 strain UTI89 [3]; [8]): 3.83 µM

O=C(Nc1cc(-c2ccc(OCC(F)(F)F)cc2)sc1C(=O)O)c1ccc(Br)o1 [compound 56643003]
IC50 [1]: 50 µM
IC50 (E. coli K1 strain UTI89 [2]; [4]): 4.9 µM
IC50 (E. coli K1 strain UTI89 [3]; [5]): 0.625 µM

CCOc1ccc(-c2cc(NC(=O)c3c(F)cccc3F)c(C(=O)OC)s2)cc1 [compound 16012549]
IC50 [1]: > 300 µM
IC50 (E. coli K1 strain UTI89 [2]; [6]): > 100 µM

O=C(O)c1sc(-c2ccc(OCC(F)(F)F)cc2)cc1NC(=O)c1c(F)cc(F)cc1F [compound 56643012]
IC50 [1]: 161 µM
IC50 (E. coli K1 strain UTI89 [2]; [4]): 94.9 µM
IC50 (E. coli K1 strain UTI89 [3]; [5]): 2.5 to 5 µM

CC(C)c1ccc(-c2cc(NC(=O)c3ccc(Br)o3)c(C(=O)O)s2)cc1 [compound 53470420]
IC50 [1]: 50.4 µM
IC50 (E. coli K1 strain UTI89 [2]; [7]): 3.08 µM
IC50 (E. coli K1 strain UTI89 [3]; [8]): 1.25 µM

CC(C)(C)c1ccc(-c2cc(NC(=O)c3c(F)cccc3F)c(C(=O)O)s2)cc1 [compound 53470433]
IC50 [1]: 35.1 µM
IC50 (E. coli K1 strain UTI89 [2]; [7]): 11.5 µM
IC50 (E. coli K1 strain UTI89 [3]; [8]): 1.64 µM

CCCOc1ccc(-c2cc(NC(=O)c3c(F)cc(F)cc3F)c(C(=O)O)s2)cc1 [compound 56643023]
IC50 [1]: 85.6 µM
IC50 (E. coli K1 strain UTI89 [2]; [4]): 8.06 µM
IC50 (E. coli K1 strain UTI89 [3]; [5]): < 0.625 µM

CCOc1ccc(-c2cc(NC(=O)c3cccc(F)c3)c(C(=O)O)s2)cc1 [compound 23602076]
IC50 [1]: 61.3 µM
IC50 (E. coli K1 strain UTI89 [2]; [7]): 14.7 µM
IC50 (E. coli K1 strain UTI89 [3]; [8]): 2.61 µM

COC(=O)c1sc(-c2ccccc2)cc1NC(=O)c1ccccc1 [compound 6710528]
% Inhibition at 100 μM (E. coli K1 strain UTI89 [2]): 4.18%

Cc1ccc(-c2cc(NC(=O)c3ccc(Br)o3)c(C(=O)O)s2)cc1 [compound 53470423]
IC50 [1]: 50.7 µM
IC50 (E. coli K1 strain UTI89 [2]; [7]): 15.7 µM
IC50 (E. coli K1 strain UTI89 [3]; [8]): 1.01 µM

CCCc1ccc(-c2cc(NC(=O)c3c(F)cc(F)cc3F)c(C(=O)O)s2)cc1 [compound 56643011]
IC50 [1]: 69.9 µM
IC50 (E. coli K1 strain UTI89 [2]; [4]): 15.9 µM
IC50 (E. coli K1 strain UTI89 [3]; [5]): 2.5 to 5 µM

CCCCOc1ccc(-c2cc(NC(=O)c3c(F)cccc3F)c(C(=O)O)s2)cc1 [CID 56643007]
IC50 (E. coli K1 strain UTI89 [2]; [9]): < 0.78 µM

COC(=O)c1sc(-c2ccccc2)cc1NC(C)=O [compound 4114774]
% Inhibition at 100 μM (E. coli K1 strain UTI89 [2]): 0.68%

COC(=O)c1sc(-c2ccc(Cl)cc2)cc1NC(=O)c1ccccc1C(=O)O [compound 2814791]
% Inhibition at 100 μM (E. coli K1 strain UTI89 [2]): −0.17%

CCOc1ccc(-c2cc(NC(=O)c3ccc(Br)o3)c(C(=O)O)s2)cc1 [CID 23602086, 3-(5-Bromofuran-2-carboxamido)-5-(4-ethoxyphenyl)thiophene-2-carboxylic acid]
IC50 (E. coli K1 strain UTI89 [2]; [9]): 3.42 µM
IC50 (E. coli K1 strain UTI89 [3]; Escherichia coli): < 10 µM

[N-]=[N+]=NCCOc1ccc(-c2cc(NC(=O)c3c(F)cccc3F)c(C(=O)O)s2)cc1 [CID 56643025]
IC50 (E. coli K1 strain UTI89 [2]; Escherichia coli, read-out: K1 phage IC50 (inhibition of K1 capsule formation)): ~17 µM

CCOc1ccc(-c2cc(NC(=O)c3c(F)cccc3F)c(C(=O)OC)s2)cc1 [CID 16012549]
IC50 (E. coli K1 strain UTI89 [2]; [9]): > 100 µM

COc1ccc(-c2cc(NC(=O)c3c(F)cccc3F)c(C(=O)O)s2)cc1 [CID 53470430]
IC50 (E. coli K1 strain UTI89 [2]; [9]): > 100 µM

CCOc1ccc(-c2cc(NC(=O)c3ccc(Br)o3)c(C(=O)O)s2)cc1 [compound 23602086]
IC50 [1]: 68.7 µM
IC50 (E. coli K1 strain UTI89 [3]; [8]): < 0.625 µM

O=C(O)c1sc(-c2ccc(OCCCC(F)(F)F)cc2)cc1NC(=O)c1c(F)cccc1F [CID 56643024]
IC50 (E. coli K1 strain UTI89 [2]; [9]): 10.3 µM

O=C(O)c1sc(-c2ccc(OCC(F)(F)F)cc2)cc1NC(=O)c1c(F)cccc1F [CID 56643002]
IC50 (E. coli K1 strain UTI89 [2]; [9]): 2.86 µM

COC(=O)c1sc(-c2ccccc2)cc1NC(=O)c1ccc(F)cc1 [compound 3669658]
% Inhibition at 100 μM (E. coli K1 strain UTI89 [2]): 2.58%
